Where a SMILES comes first, the peptide text is derived from it. [ ]: non-standard residue; d: D form. Phe(3,4-F2) = N[C@@H](Cc1ccc(F)c(F)c1)C(=O)O; Cha = N[C@@H](CC1CCCCC1)C(=O)O; Aib = CC(C)(N)C(=O)O
Assays:
[1] = target: SARS-CoV-2 RBD binding to immobilized ACE2 (Severe acute respiratory syndrome coronavirus 2, UniProt P0DTC2); assay: biochemical
SARS-CoV-2 RBD = SARS-CoV-2 RBD (Severe acute respiratory syndrome coronavirus 2, UniProt P0DTC2); assay: biochemical; format: binding; conditions: for Kd: KD (direct binding to RBD)

Compound | IC50 [1] [nM] | Kd (SARS-CoV-2 RBD) [nM] | kon (SARS-CoV-2 RBD; read-out: ka) [M⁻¹ s⁻¹]
CC[C@H](C)[C@H](NC(=O)[C@H](CC(C)C)NC(=O)[C@H](CC(=O)O)NC(=O)[C@H](CO)NC(=O)[C@@H](NC(=O)[C@H](CCCNC(=N)N)NC(=O)[C@H](CCSC)NC(=O)[C@H](CO)NC(=O)[C@H](C)NC(=O)[C@H](CCC(=O)O)NC(=O)C(C)(C)NC(=O)[C@H](CC(=O)O)NC(=O)[C@@H](C)NC(=O)[C@H](CC(C)C)NC(=O)[C@H](CCC(=O)O)NC(=O)[C@H](CC(=O)O)NC(=O)[C@H](CC(C)C)NC(=O)[C@H](CC(C)C)NC(=O)[C@H](CCCNC(=N)N)NC(=O)[C@H](CCSC)NC(=O)[C@@H](NC(=O)[C@H](CCC(=O)O)NC(=O)[C@H](Cc1ccc(F)c(F)c1)NC(=O)[C@@H](NC(=O)[C@H](CCCCN)NC(=O)[C@H](CCC(N)=O)NC(=O)[C@H](CC(C)C)NC(=O)[C@@H](NC(=O)[C@H](Cc1c[nH]c2ccccc12)NC(=O)[C@H](CCC(=O)O)NC(=O)[C@H](CCCCN)NC(=O)[C@@H](N)CC(=O)O)[C@@H](C)CC)[C@@H](C)CC)[C@@H](C)CC)C(C)C)C(=O)N[C@@H](Cc1ccc(O)cc1)C(=O)N[C@@H](CCC(=O)O)C(=O)N[C@@H](Cc1ccccc1)C(=O)N[C@@H](CCSC)C(=O)N[C@@H](CCCCN)C(=O)N[C@@H](CCCCN)C(N)=O [SIH-7] (H-DKEWILQKI[Phe(3,4-F2)]EIMRLLDEL[dA]D[Aib]EASMRVSDLIYEFMKK-NH2) | 125 to 250 | 2.9 | 
CC[C@H](C)[C@H](NC(=O)[C@H](CC(C)C)NC(=O)[C@H](CC(=O)O)NC(=O)[C@H](CO)NC(=O)[C@@H](NC(=O)[C@H](CCCNC(=N)N)NC(=O)[C@H](CCSC)NC(=O)[C@H](CO)NC(=O)[C@H](C)NC(=O)[C@H](CCC(=O)O)NC(=O)C(C)(C)NC(=O)[C@H](CC(=O)O)NC(=O)[C@@H](C)NC(=O)[C@H](CC(C)C)NC(=O)[C@H](CCC(=O)O)NC(=O)[C@H](CC(=O)O)NC(=O)[C@H](CC(C)C)NC(=O)[C@H](CC(C)C)NC(=O)[C@H](CCCNC(=N)N)NC(=O)[C@H](CCSC)NC(=O)[C@@H](NC(=O)[C@H](CCC(=O)O)NC(=O)[C@H](Cc1ccc(F)c(F)c1)NC(=O)[C@@H](NC(=O)[C@H](CCCCN)NC(=O)[C@H](CCC(N)=O)NC(=O)[C@H](CC(C)C)NC(=O)[C@@H](NC(=O)[C@H](Cc1c[nH]c2ccccc12)NC(=O)[C@H](CCC(=O)O)NC(=O)[C@H](CCCCN)NC(=O)[C@@H](N)CC(=O)O)[C@@H](C)CC)[C@@H](C)CC)[C@@H](C)CC)C(C)C)C(=O)N[C@@H](Cc1ccc(O)cc1)C(=O)N[C@@H](CCC(=O)O)C(=O)N[C@@H](CC1CCCCC1)C(=O)N[C@@H](CCSC)C(=O)N[C@@H](CCCCN)C(=O)N[C@@H](CCCCN)C(N)=O [SIH-13] (H-DKEWILQKI[Phe(3,4-F2)]EIMRLLDEL[dA]D[Aib]EASMRVSDLIYE[Cha]MKK-NH2) | 125 to 250 | 1.6 | 
CC[C@H](C)[C@H](NC(=O)[C@H](C)NC(=O)[C@H](CC(=O)O)NC(=O)[C@H](CO)NC(=O)[C@@H](NC(=O)[C@H](CCCNC(=N)N)NC(=O)[C@H](CCSC)NC(=O)[C@H](CO)NC(=O)[C@H](C)NC(=O)[C@H](CCC(=O)O)NC(=O)C(C)(C)NC(=O)[C@H](CC(=O)O)NC(=O)[C@@H](C)NC(=O)[C@H](CC(C)C)NC(=O)[C@H](CCC(=O)O)NC(=O)[C@H](CC(=O)O)NC(=O)[C@H](CC(C)C)NC(=O)[C@H](CC(C)C)NC(=O)[C@H](CCCNC(=N)N)NC(=O)[C@H](CCSC)NC(=O)[C@H](C)NC(=O)[C@H](CCC(=O)O)NC(=O)[C@H](Cc1ccc(O)cc1)NC(=O)[C@@H](NC(=O)[C@H](CCCCN)NC(=O)[C@H](CCC(N)=O)NC(=O)[C@H](CC(C)C)NC(=O)[C@@H](NC(=O)[C@H](Cc1c[nH]c2ccccc12)NC(=O)[C@H](CCC(=O)O)NC(=O)[C@H](CCCCN)NC(=O)[C@@H](N)CC(=O)O)[C@@H](C)CC)[C@@H](C)CC)C(C)C)C(=O)N[C@@H](Cc1ccc(O)cc1)C(=O)N[C@@H](CCC(=O)O)C(=O)N[C@@H](Cc1ccccc1)C(=O)N[C@@H](CCSC)C(=O)N[C@@H](CCCCN)C(=O)N[C@@H](CCCCN)C(N)=O [SIH-14] (H-DKEWILQKIYEAMRLLDEL[dA]D[Aib]EASMRVSDAIYEFMKK-NH2) | 250 to 500 | 3 | 90000
